From patent US8173668B1 (Alcon Research, Ltd., priority 2007, dated 2012) come the findings set out here.

SMILES strings stand for the structures.

For orientation: Emax means the greatest response seen or fitted, relative to the assay's reference. What is called EC50 is the concentration at which the effect is half-maximal.

The subject of assay [1] is anterior eye segments of pig eyes. In words: Outflow facility in perfused anterior eye segments. The settings on record: 1 μM, perfused porcine anterior eye segments, n=5; FIG. 8. How it is done:
Anterior eye segments obtained from postmortem porcine eyes were used to study the effects of non-peptide agonists on fluid outflow through the trabecular meshwork and Schlemms' canal (Erickson-Lamey et al., Curr. Eye Res. 7: 799-807, 1988; Vaajanen et al. J. Ocular Pharmacol. Ther. 23: 124-131, 2007). The postmortem eyes were placed in DMEM containing 50 U/ml penicillin, 50 μg/mL streptomycin, and 5 μg/mL amphotericin B prior to dissection under sterile conditions. Eyes were bisected at the to equator and the anterior chamber transferred to a petri dish. The lens was removed and the remaining choroid, iris, and ciliary body gently teased away. […] Perfusion pressure for standard perfusion was maintained at a constant level of 10 mmHg, and rate of fluid outflow monitored continuously (i.e. by means of a Model ACCU 124 analytical balance; Fisher Scientific, Pittsburgh, Pa.) throughout the experiment. The rate of fluid flow was recorded by a computer utilizing Collect XL software (Lab Tronics, Inc; Guelph, Ontario, Canada). Outflow facility was calculated as the ratio of flow rate to perfusion pressure (μL/min/mmHg).
Preparations were allowed to stabilize overnight (14-16 hr), and baseline facilities were then recorded for 40-60 min. […]

Assay [2] deals with T1, B2-receptors in h-NPE cells (Homo sapiens, UniProt P30411).
T1 construct: B2-receptor proteins in h-TM, h-CM and h-NPE cells; endogenous in cells; host or cells: human trabecular meshwork (h-TM), human ciliary muscle (h-CM) and human non-pigmented ciliary epithelial (h-NPE) cells
T1 sequence (P30411 1-391): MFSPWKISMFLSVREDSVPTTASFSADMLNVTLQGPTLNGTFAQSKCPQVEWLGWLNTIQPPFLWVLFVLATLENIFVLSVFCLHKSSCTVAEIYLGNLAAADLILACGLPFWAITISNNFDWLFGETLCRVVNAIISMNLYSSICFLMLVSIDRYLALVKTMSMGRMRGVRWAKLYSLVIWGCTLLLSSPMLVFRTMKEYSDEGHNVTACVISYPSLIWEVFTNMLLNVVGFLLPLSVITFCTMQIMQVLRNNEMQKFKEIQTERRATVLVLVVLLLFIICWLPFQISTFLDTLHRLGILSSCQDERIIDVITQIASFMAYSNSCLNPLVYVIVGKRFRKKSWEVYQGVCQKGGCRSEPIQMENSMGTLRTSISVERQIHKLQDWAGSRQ
The assay can be described thus: [Ca2+]i mobilization (FLIPR) in h-NPE cells, agonist mode. The assay is classed as cell-based. To be noted: h-NPE cells, mean ± SEM. How it is done: On the day of the experiment, one vial of FLIPR Calcium Assay Kit dye is re-suspended in 50 mL of a FLIPR buffer consisting of Hank's Balanced Salt Solution (HBSS), 20 mM HEPES, and 2.5 mM probenecid, pH 7.4. Cells are loaded with the calcium-sensitive dye by addition of an equal volume (50 μL) to each well of the 96-well plate and incubated with dye for 1 h at 23° C. After this time, the test compound plate and cell plate are placed in the FLIPR instrument. At the beginning of an experimental run, a signal test is performed to check the basal fluorescence signal from the dye-loaded cells and the uniformity of the signal across the plate. The basal fluorescence is adjusted between 8000-12000 counts by modifying the exposure time, the camera F-stop, or the laser power. Instrument settings for a typical assay are the following: laser power 0.3-0.6 W, camera F-stop F/2, and exposure time 0.4 sec.
Fluorescence data are collected in real-time at 1.0 sec intervals for the first 60 secs and at 6.0 sec intervals for an additional 120 secs. […] The data are then analyzed using an automated, iterative, sigmoidal curve-fitting computer program to obtain the potency and intrinsic activities of the test agents as previously described (Sharif et al. J. Pharmacol. Exp. Ther. 286: 1094-1102, 1998; Sharif et al. Invest. Ophthalmol. Vis. Sci. 39:2562-2571, 1998; Kelly et al. J. Pharmacol. Exp. Ther. 304: 238-245, 2003). The sources of materials and reagents for such assays can be found in the references cited above.

The test system of a further assay is h-CM cells. In words: Prostaglandin production in h-CM cells. The assay is classed as cell-based, human. The settings on record: 1-10 μM. How it is done:
A functional assay to discover BK agonists may involve the measurement of prostaglandin E2 (PGE2) production (Wiernas et al. Brit. J. Pharmacol. 123: 1127-1137, 1998), for instance, in cells isolated from human or animal ocular or non-ocular tissues, or cells expressing recombinant (preferably human) BK receptors. Cells expressing BK receptors are seeded in 48-wells culture plates and allowed to reach confluence. After this time the cells are rinsed twice with 0.5 mL of phosphate buffered saline and incubated with the test agent made up in 0.5 mL Dulbeco's modified Eagle's medium (DMEM)/F-12 for 1 h at 37° C. […]
After this incubation, all tubes are placed in an ice-bath and 1 ml cold precipitating reagent supplied in the kit is added to the tubes, the content mixed and incubated for 25 min at 4° C. […] The supernatants of all tubes are decanted as specified in the kit instructions and the RIA samples analyzed on a gamma-counter. The levels of PGE2 generated by the test agent are then quantified in comparison with the PGE2-standard curve. Dose-response data for the test agent are constructed and the potency and intrinsic activity determined as described above for other assays. […]

Regarding `CNC(=O)c1ccc(/C=C/C(=O)NCC(=O)N(C)c2ccc(Cl)c(COc3cccc4c(OCc5ccccn5)cc(C)nc34)c2Cl)cc1` [FR-190997], the outflow facility entry in assay [1] is recorded as “increased the outflow facility flow”. The maximal response (Emax) in assay [2] (read-out: Intrinsic Activity (Emax, % max relative to BK)) was 32%. Moreover, the EC50 in assay [2] (read-out: Potency (EC50), [Ca2+]i mobilization) was 384 ± 39 nM. The production of prostaglandins in the assay with h-CM cells is listed as 1.75 fold above basal.
